Assay results: patent publication US20060069084A1, “Methods of inhibiting kinases” (priority 2001, published 2006)

Key:
Format in all cases: biochemical
Settings in all cases: inhibit 50% of activity at 50 μM
JAK1 = target: T1, JAK1 (Homo sapiens, UniProt P23458); assay: JAK1 kinase domain capture-based ELISA kinase assay
T1 construct: The kinase domain of humanJAK1 was amplified from U937mRNA; His tag (from pFastBac HTb vector; nickel chelate purification) (N); made in house; host or cells: baculovirus; virus made in Sf9, large-scale expression in High Five insect cells
Method in brief: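 His-tagged human JAK1 kinase domain was expressed via baculovirus in High Five insect cells and purified on nickel chelate resin. Phosphotyrosine was quantified by ELISA with peroxidase-linked PY20 after capture on avidin plates.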

JAK3 = target: T2, JAK3 (Homo sapiens, UniProt P52333); assay: JAK3 kinase domain capture-based ELISA kinase assay
T2 construct: The kinase domain of humanJAK3 was amplified from U937mRNA; His tag (from pFastBac HTb vector; nickel chelate purification) (N); made in house; host or cells: baculovirus; virus made in Sf9, large-scale expression in High Five insect cells
Method in brief: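 The human JAK3 kinase domain was His-tagged, baculovirus-expressed in High Five cells and nickel-affinity purified. Tyrosine phosphorylation was quantified on avidin-coated ELISA plates with peroxidase-linked anti-phosphotyrosine antibody PY20.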

TYK2 = target: T3, TYK2 (Homo sapiens, UniProt P29597); assay: TYK2 kinase domain capture-based ELISA kinase assay
T3 construct: The kinase domain of humanTYK2 was amplified from A549 mRNA; His tag (from pBlueBacHis2A vector; nickel chelate purification) (N); made in house; host or cells: baculovirus; virus made in Sf9, large-scale expression in High Five insect cells
T3 sequence (P29597 897-1176 limits assumed): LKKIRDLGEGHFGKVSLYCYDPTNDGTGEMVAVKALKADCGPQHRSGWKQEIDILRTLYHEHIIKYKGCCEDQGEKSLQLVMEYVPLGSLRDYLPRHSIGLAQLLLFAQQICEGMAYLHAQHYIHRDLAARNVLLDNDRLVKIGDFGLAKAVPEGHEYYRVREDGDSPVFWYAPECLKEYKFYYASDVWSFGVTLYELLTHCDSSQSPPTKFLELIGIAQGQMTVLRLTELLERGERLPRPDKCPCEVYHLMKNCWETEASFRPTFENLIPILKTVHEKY
Method in brief: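 His-tagged human TYK2 kinase domain expressed in baculovirus-infected insect cells and Ni-affinity purified. Biotinylated peptide substrate (5 μM final); phosphotyrosine captured on avidin plate and detected by peroxidase-linked PY20 antibody ELISA.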

JAK2 = target: T4, JAK2 (Homo sapiens, UniProt O60674); assay: JAK2 kinase domain capture-based ELISA kinase assay
T4 construct: The kinase domain of humanJAK2 was amplified from U937mRNA; His tag (from pFastBac HTc vector; nickel chelate purification) (N); made in house; host or cells: baculovirus; virus made in Sf9, large-scale expression in High Five insect cells
Method in brief: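 His-tagged human JAK2 kinase domain was baculovirus-expressed in High Five insect cells and nickel-purified. Phosphotyrosine was captured on avidin plates and detected by ELISA with peroxidase-linked PY20.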

T2 sequence (P52333 822-1111 limits assumed): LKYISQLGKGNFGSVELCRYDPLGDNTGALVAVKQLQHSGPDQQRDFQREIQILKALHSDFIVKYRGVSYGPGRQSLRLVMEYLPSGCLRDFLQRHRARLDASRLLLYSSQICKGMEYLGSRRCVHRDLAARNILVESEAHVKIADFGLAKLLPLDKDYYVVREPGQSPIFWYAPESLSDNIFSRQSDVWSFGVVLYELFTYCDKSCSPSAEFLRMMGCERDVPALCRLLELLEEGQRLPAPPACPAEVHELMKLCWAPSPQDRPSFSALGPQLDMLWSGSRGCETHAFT
T1 sequence (P23458 875-1153 limits assumed): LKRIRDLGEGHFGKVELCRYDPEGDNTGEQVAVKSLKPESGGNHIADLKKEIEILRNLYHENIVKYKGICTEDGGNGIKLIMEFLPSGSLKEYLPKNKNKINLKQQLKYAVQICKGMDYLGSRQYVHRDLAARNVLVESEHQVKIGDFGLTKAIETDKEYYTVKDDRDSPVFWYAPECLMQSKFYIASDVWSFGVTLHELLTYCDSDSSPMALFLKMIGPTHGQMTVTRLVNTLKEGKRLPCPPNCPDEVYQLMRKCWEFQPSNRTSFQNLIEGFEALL
T4 sequence (O60674 849-1124 limits assumed): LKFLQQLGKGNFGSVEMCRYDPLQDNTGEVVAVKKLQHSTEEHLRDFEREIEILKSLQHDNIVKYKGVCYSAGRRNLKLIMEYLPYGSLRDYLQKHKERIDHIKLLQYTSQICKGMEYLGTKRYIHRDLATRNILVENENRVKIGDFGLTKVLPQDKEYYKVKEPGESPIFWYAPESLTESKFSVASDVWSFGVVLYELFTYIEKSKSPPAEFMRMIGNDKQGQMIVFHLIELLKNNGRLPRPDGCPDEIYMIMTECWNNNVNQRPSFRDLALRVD

| IC50 (JAK1; Table 5) [µM] | IC50 (JAK3; Table 5) [µM] | IC50 (TYK2; Table 5) [µM] | IC50 (JAK2; Table 5) [µM] | IC50 (JAK1; Table 6) [µM] | IC50 (JAK3; Table 6) [µM] | IC50 (TYK2; Table 6) [µM] | IC50 (JAK2; Table 6) [µM] | Compound |
| --- | --- | --- | --- | --- | --- | --- | --- | --- |
| < 50 | < 50 | < 50 | < 50 | – | – | – | – | c1cc(-c2cn3ccnc3c(Nc3ccc(N4CCOCC4)cc3)n2)ccn1 [drawing 61] |
| < 50 | < 50 | < 50 | < 50 | – | – | – | – | c1cncc(-c2cn3ccnc3c(Nc3ccc(N4CCOCC4)cc3)n2)c1 [drawing 62] |
| < 50 | < 50 | < 50 | < 50 | – | – | – | – | OCc1ccccc1-c1cn2ccnc2c(Nc2ccc(N3CCOCC3)cc2)n1 [drawing 64] |
| < 50 | < 50 | < 50 | < 50 | – | – | – | – | CCN(CCO)c1ccc(Nc2nc(-c3cccc4ccccc34)cn3ccnc23)cc1 [drawing 68] |
| < 50 | < 50 | < 50 | < 50 | – | – | – | – | CCN(CCO)c1ccc(Nc2nc(-c3ccccc3CO)cn3ccnc23)cc1 [drawing 69] |
| < 50 | < 50 | < 50 | < 50 | – | – | – | – | Nc1cccc(-c2cn3ccnc3c(Nc3ccccc3)n2)c1 [drawing 71] |
| < 50 | < 50 | < 50 | < 50 | – | – | – | – | Oc1ccc(-c2cn3ccnc3c(N3CCOCC3)n2)cc1 [drawing 75] |
| < 50 | < 50 | < 50 | < 50 | – | – | – | – | Brc1cn2ccnc2c(Nc2ccc(N3CCOCC3)cc2)n1 [drawing 82] |
| < 50 | < 50 | < 50 | < 50 | – | – | – | – | CCN(CCO)c1ccc(Nc2nc(Br)cn3ccnc23)cc1 [drawing 83] |
| < 50 | < 50 | < 50 | < 50 | – | – | – | – | COCCNc1nc(-c2ccccc2)cn2ccnc12 [drawing 85] |
| – | – | – | – | < 50 | > 50 | < 50 | < 50 | Nc1cccc(-c2cn3ccnc3c(Nc3ccccc3)n2)c1 [drawing 87] |
| – | – | – | – | > 50 | > 50 | > 50 | < 50 | Oc1ccc(-c2cn3ccnc3c(N3CCOCC3)n2)cc1 [drawing 90] |
| – | – | – | – | < 50 | > 50 | > 50 | < 50 | COCCNc1nc(-c2ccccc2)cn2ccnc12 [drawing 93] |
| – | – | – | – | < 50 | > 50 | > 50 | < 50 | CCN(CCO)c1ccc(Nc2nc(-c3cccc4ccccc34)cn3ccnc23)cc1 [drawing 94] |
| – | – | – | – | < 50 | > 50 | < 50 | < 50 | CCN(CCO)c1ccc(Nc2nc(-c3ccccc3CO)cn3ccnc23)cc1 [drawing 96] |
| – | – | – | – | < 50 | > 50 | < 50 | < 50 | Brc1cn2ccnc2c(Nc2ccc(N3CCOCC3)cc2)n1 [drawing 100] |
| – | – | – | – | < 50 | > 50 | < 50 | < 50 | CCN(CCO)c1ccc(Nc2nc(Br)cn3ccnc23)cc1 [drawing 101] |
| – | – | – | – | < 50 | > 50 | < 50 | < 50 | c1cc(-c2cn3ccnc3c(Nc3ccc(N4CCOCC4)cc3)n2)ccn1 [drawing 120] |
| – | – | – | – | < 50 | > 50 | < 50 | < 50 | c1cncc(-c2cn3ccnc3c(Nc3ccc(N4CCOCC4)cc3)n2)c1 [drawing 131] |
| – | – | – | – | < 50 | > 50 | > 50 | < 50 | OCc1ccccc1-c1cn2ccnc2c(Nc2ccc(N3CCOCC3)cc2)n1 [drawing 142] |
